Counter-ions that a name gives are not always drawn. Values belong to the molecule of their own block, whether it stands above or below them.
Tests used:
H^+K^+-ATPase = biological target: T1, H^+K^+-ATPase (Sus scrofa, UniProt P19156); test: Inhibition of H^+K^+-ATPase in microsomal vesicles of porcine gastric mucosa; type: biochemical; conditions: pH 6.8, inorganic phosphorus readout
T1 construct: H^+K^+ATPase was extracted from porcine gastric mucosal microsomal vesicles by iPhase; tissue iPhase; host or cells: porcine gastric mucosa, microsomal vesicles
Description: Test method: H^+K^+-ATPase is an ATPase localized in gastric mucosal parietal cells and activated exclusively by K^+. In this experiment, H^+K^+-ATPase was extracted from the microsomal vesicles of porcine gastric mucosa, and ATPase could decompose ATP to generate ADP and inorganic phosphorus. The test article combined H^+K^+-ATPase and inhibited its activity. The level of ATPase activity was judged by measuring the amount of inorganic phosphorus, and the inhibitory effect of the test article was determined.
H^+K^+ATPase was extracted from porcine gastric mucosal microsomal vesicles by iPhase.
100 mM TRIS-HCL (PH 6.8): 100 μL 1M TRIS-HCL was added to 900 μl ddH2O and mixed well.
37.5 mM MgCl2: 50 mg MgCl2 was added to […] ddH2O and mixed well. 200 mM KCl: 500 mg KCl was added to 33.5 mL ddH2O and mixed well. 10 mM nigericin and valinomycin: 669 μl and 890 μL DMSO were added and mixed, dispensed into 1 μL nigericin and 5 μl valinomycin per tube, and stored at −20° C.
0.1 mg/ml microsomal vesicles: Protein concentrations were determined upon arrival and dispensed, stored at −80° C., and diluted with 5 mM TRIS-HCL for use.
Control compound: TAK438 was prepared as a 10 mM stock solution in DMSO and dispensed in 1 μL per tube.
Test compound: Product A and crystal form I were prepared as 10 mM stock solutions in ddH2O, and dispensed in 1 μL per tube.
With 20 μM (or 40 μM) as the highest concentration, the control compound and the test compound were diluted stepwise 3-fold with DMSO and ddH2O, respectively, to obtain the samples to be tested at 6 (or 7 or 8) concentration gradients.
Water bath at 37° C. for 30 min, 16.5 μL ATP added and mixed well, and water bath at 37° C. for 30 min
The chromogenic agent was prepared based on the instructions of *H^+K^+ ATP kit (Nanjing Jiancheng).
Per the enzymatic reaction volume of 150 μL, 45 μl of chromogen was added and mixed well, allowed to stand for 2 min, and the absorbance light signal at 660 nm was read by a microplate reader.
• 1) The inhibition rate was calculated according to the following formula: […]

[1] = tested on: histamine-induced gastric acid secretion; test: Effect on histamine-induced gastric acid secretion in rats; type: in vivo, SD rats
Description: Surgical modeling: Rats were anesthetized with intraperitoneal injection of ethyl carbamate at a dose of 1.5 g/kg. Rats under complete anesthesia were shaved from the neck and abdomen, and were intubated to maintain airway patency during surgery. The cardiac perfusion tube was orally inserted about 1 cm into the stomach of rats, and the other end of the cardiac perfusion tube was connected to a constant flow pump. A small incision was made below the xiphoid cartilage to find the duodenum, an incision was made transversely, the end of the collection tube of gastric pyloric samples was passed along the duodenum into the stomach about 1 cm through the wound, the duodenum was tightened with the collection tube of gastric pyloric samples with a suture, and the other end of the duodenal incision was tightened. Gastric lavage remnants were rapidly flushed along the esophago-cardia cannula with 150 mL of 37° C. prewarmed saline, outflowed through the collection tube of gastric pylorus samples, and the abdominal wall was sutured to the skin. Perfusion was continued with normal saline at a rate of 1 mL/min for 30 min, the other end of the col-lection tube for gastric pyloric samples was left in vitro, gastric juice samples were collected in conical flasks (one sample per 20 min of col-lection), and two basal gastric juice samples were collected, at which time basal gastric acid secretion reached a steady state.
Histamine-induced gastric acid secretion: Histamine was administered to rats by continuous tail vein injection with a microinjection pump at a dose of 20 μmol/kg/hr. Gastric acid was collected after 80 min, and after three time points, histamine secretion reached a steady state in rats, which was grouped according to the value of gastric acid secretion after histamine administration in rats, and candidate drugs or vehicle controls were administered based on the protocol. […] The details are as follows:
The required amount of Vonoprazan fumarate was weighed, added with an appropriate amount of 0.5% CMC-Na, stirred, sonicated to obtain a homogeneous suspension, and diluted sequentially to the corresponding concentration according to the concentration required by the protocol.
The required amount of HW-N2001 was weighed, added with appropriate physiological saline, and mixed thoroughly to obtain a clear solution, and the pH was adjusted to a range of 3.2 to 3.8. Based on the concentrations required by the protocol, the corresponding concentrations were successively diluted.
One hundred and eighteen of 130 SD rats in good health were selected and randomly divided into 8 groups according to body weight and base-line value after histamine administration after the end of the adaptation period, as detailed in the table below.
Collected gastric juice samples were taken and titrated with 0.01 N sodium hydroxide solution by a basic burette to PH7 as the endpoint, with the phenolphthalein indicator as a color indicator. The titration volume was measured and the acid secretion is calculated according to the following formula: acid secretion (μEq)=volume of NaOH (mL)×10^−3×0.01 mol/L×10^6.
Two basal gastric juice samples were collected, and an infusion extension tube prematurely inhaled with histamine was connected to the indwelling needle of tail vein in rats after basal gastric acid levels were stabilized. The syringe pump was opened, and histamine was calculated according to the dose of 20 μmol/kg/hr and the intravenous drip rate of each animal in the syringe pump was set. Gastric acid samples after histamine administration were collected after 80 minutes of continuous injection of histamine solution.

[2] = Deliquescence test (storage at 40° C. and 75% relative humidity); type: physicochemical; design: key: “Absence of deliquescence” refers to that no moisture absorption is observed on the sample surface; Slight: “slight deliquescence” refers to that moisture absorption is observed on the sample surface; Obvious: “obvious deliquescence” refers to that lubrication can be observed on the sample surface
Method: • (1) Deliquescence test: The product A, crystal form I, and TAK-438 were stored at 40° C. and 75% relative humidity and observed for deliquescence for 30 days, with results recorded every 10 days as detailed in the table below.
(§1) “Absence of deliquescence” refers to that no moisture absorption is observed on the sample surface, “slight deliquescence” refers to that moisture absorption is observed on the sample surface, and “obvious deliquescence” refers to that lubrication can be observed on the sample surface. • (2) Thermal stability test: The product A and crystal form I were stored separately in open containers at 60° C. and tested for storage stability after 30 days (Day 31). Samples at initial and after 30 days of storage were tested for purity by HPLC with three replicates per sample and averaged and the results are presented in the following table.

[3] = Thermal stability test (open containers at 60° C., purity by HPLC); type: physicochemical; conditions: mean of three replicates; for Purity (%), Day 31: HPLC purity after 30 days in open container at 60° C.; for Purity (%), Initial point: HPLC purity before storage
Method: The chromatographic conditions for HPLC purity testing of the product involved in the present invention are as follows:
Column: Ultimate XB-C18, column length: 150 mm, inner diameter: 4.6 mm, particle size: 5 μm
Flow rate: 1.2 mL/min; column temperature: 30° C.; wavelength: 210 nm; injection volume: 20 μL; solvent: acetonitrile-water (volume ratio 5:95)
Mobile phase A: acetonitrile-0.02 mol/L potassium dihydrogen phosphate (adjusted to pH 2.5 with phosphoric acid) (volume ratio 5:95)
Mobile phase B: methanol-acetonitrile-0.02 mol/L potassium dihydrogen phosphate (adjusted to pH 2.5 with phosphoric acid) (volume ratio 7:63:30)
The proportions of mobile phases A and B over time are as follows:
as §1

[4] = 0.375 mg/kg i.v., 60 min after administration
[5] = 0.375 mg/kg i.v., 180 min after administration
[6] = 0.75 mg/kg i.v., 20 min after administration
[7] = 1.5 mg/kg i.v., 20 min after administration
[8] = 1.5 mg/kg i.v., 80 min after administration
[9] = 1.5 mg/kg i.v., 180 min after administration
[10] = 2 mg/kg i.d., 60 min after administration
[11] = 2 mg/kg i.d., 180 min after administration
[12] = 4 mg/kg i.d., 40 min after administration
[13] = 4 mg/kg i.d., 180 min after administration

T1 sequence (P19156 2-1034 limits assumed): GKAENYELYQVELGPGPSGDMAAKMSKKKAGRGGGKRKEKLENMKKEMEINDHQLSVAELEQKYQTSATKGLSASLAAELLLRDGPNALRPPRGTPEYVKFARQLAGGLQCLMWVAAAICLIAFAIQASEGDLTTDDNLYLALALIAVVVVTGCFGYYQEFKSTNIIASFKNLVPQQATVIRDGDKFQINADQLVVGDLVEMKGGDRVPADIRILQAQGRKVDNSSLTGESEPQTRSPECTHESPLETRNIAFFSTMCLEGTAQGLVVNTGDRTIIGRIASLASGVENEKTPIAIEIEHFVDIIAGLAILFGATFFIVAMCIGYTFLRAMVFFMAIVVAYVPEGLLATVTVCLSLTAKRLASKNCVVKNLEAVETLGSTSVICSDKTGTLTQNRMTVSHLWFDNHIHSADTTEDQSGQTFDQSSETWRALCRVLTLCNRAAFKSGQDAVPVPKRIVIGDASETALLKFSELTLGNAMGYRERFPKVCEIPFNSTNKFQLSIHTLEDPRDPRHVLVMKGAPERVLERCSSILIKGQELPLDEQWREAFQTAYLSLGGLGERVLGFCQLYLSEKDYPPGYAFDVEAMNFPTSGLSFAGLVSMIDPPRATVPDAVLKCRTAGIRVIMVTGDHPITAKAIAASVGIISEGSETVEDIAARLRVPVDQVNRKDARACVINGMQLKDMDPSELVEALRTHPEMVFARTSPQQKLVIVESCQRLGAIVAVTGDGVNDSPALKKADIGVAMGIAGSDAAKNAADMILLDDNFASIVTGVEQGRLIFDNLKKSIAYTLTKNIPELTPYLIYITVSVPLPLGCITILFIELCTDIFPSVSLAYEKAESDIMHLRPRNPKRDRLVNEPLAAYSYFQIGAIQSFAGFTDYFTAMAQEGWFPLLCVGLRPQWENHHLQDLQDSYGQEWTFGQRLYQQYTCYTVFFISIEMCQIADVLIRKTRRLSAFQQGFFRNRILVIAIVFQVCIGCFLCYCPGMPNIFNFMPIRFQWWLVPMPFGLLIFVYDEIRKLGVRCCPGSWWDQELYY
T1 sequence (P18434 whole entry partner): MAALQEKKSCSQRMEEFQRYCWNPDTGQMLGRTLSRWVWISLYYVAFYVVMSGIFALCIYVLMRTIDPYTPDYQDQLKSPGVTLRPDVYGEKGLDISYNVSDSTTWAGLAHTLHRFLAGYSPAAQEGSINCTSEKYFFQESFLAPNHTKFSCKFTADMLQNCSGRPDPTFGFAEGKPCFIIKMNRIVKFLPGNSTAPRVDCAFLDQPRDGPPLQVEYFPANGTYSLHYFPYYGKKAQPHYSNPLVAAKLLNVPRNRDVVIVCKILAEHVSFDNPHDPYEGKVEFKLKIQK

Molecule: 5-(2-fluorophenyl)-N-methyl-1-(3-pyridylsulfonyl)-1H-pyrrole-3-methylamine pyroglutamate [Crystal form I]
- IC50 (H^+K^+-ATPase): 40.4 nM
- Gastric acid secretion [1, 4]: 39.15±8.54 μEq HCl/20 min
- Inhibition rate of gastric acid secretion [1, 4]: 4.34%±1.28
- Gastric acid secretion [1, 5]: 28.46±5.71 μEq HCl/20 min
- Inhibition rate of gastric acid secretion [1, 5]: 27.52%±1.43
- Gastric acid secretion [1, 6]: 37.53±9.87 μEq HCl/20 min
- Inhibition rate of gastric acid secretion [1, 6]: 11.6%±0.82
- Inhibition rate of gastric acid secretion ([1]; 0.75 mg/kg i.v., 180 min after administration): 73.68%±1.47
- Gastric acid secretion [1, 7]: 25.67±10.15 μEq HCl
- Inhibition rate of gastric acid secretion [1, 7]: 33.28%±0
- Gastric acid secretion [1, 8]: 3.4±1.18 μEq HCl
- Inhibition rate of gastric acid secretion [1, 8]: 89.64%±0
- Gastric acid secretion [1, 9]: 2.2±0.56 μEq HCl
- Inhibition rate of gastric acid secretion [1, 9]: 93.56%±0.09
- Time after administration at which pharmacodynamic effect reached a stable state ([1]; 0.75 and 1.5 mg/kg i.v.): 60 to 100 min
- Time after administration at which pharmacodynamic effect was gradually exerted ([1]; 0.75 and 1.5 mg/kg i.v.): 20 min
- ID50 ([1]; intravenous administration, 180 min after administration): 0.53 mg/kg
- Deliquescence, Day 10 [2]: Absence of
- Deliquescence, Day 20 [2]: Slight
- Deliquescence, Day 30 [2]: Obvious
- Purity (%), Day 31 [3]: 99.2%
- Purity (%), Initial point [3]: 99.8%

- IC50 (H^+K^+-ATPase): 41.5 nM
- Deliquescence, Day 10 [2]: Absence of
- Deliquescence, Day 20 [2]: Absence of
- Deliquescence, Day 30 [2]: Absence of
Molecule: CNCc1cc(-c2ccccc2F)n(S(=O)(=O)c2cccnc2)c1 [TAK-438, Vonoprazan fumarate]
- Gastric acid secretion after administration vs vehicle ([1]; 1 mg/kg i.d., rats): not significantly decreased
- Time after administration at which pharmacodynamic effect was gradually exerted ([1]; 2 mg/kg i.d.): 60 min
- Gastric acid secretion [1, 10]: 33.21±15.63 μEq HCl/20 min
- Inhibition rate of gastric acid secretion [1, 10]: 13.71%±2.12
- Gastric acid secretion [1, 11]: 16.21±14.46 μEq HCl/20 min
- Inhibition rate of gastric acid secretion [1, 11]: 57.48%±2.27
- Time after administration at which pharmacodynamic effect was gradually exerted ([1]; 4 mg/kg i.d.): 140 min
- Gastric acid secretion [1, 12]: 33.18±11.15 μEq HCl/20 min
- Inhibition rate of gastric acid secretion [1, 12]: 12.47%±1.13
- Gastric acid secretion [1, 13]: 4.41±4.02 μEq HCl/20 min
- Inhibition rate of gastric acid secretion [1, 13]: 87.03%±0.81
- Time at which strongest efficacy was reached ([1]; duodenal administration): 180 min
- ID50 ([1]; duodenal administration, 180 min): 1.87 mg/kg

Molecule: 5-(2-fluorophenyl)-N-methyl-1-(3-pyridylsulfonyl)-1H-pyrrole-3-methylamine pyroglutamate [Product A]
- IC50 (H^+K^+-ATPase): 53.4 nM
- Deliquescence, Day 10 [2]: Slight
- Deliquescence, Day 20 [2]: Obvious
- Deliquescence, Day 30 [2]: Obvious
- Purity (%), Day 31 [3]: 94.6%
- Purity (%), Initial point [3]: 98.0%

Reference: US20250206716A1, “Crystal form of Vonoprazan pyroglutamate and preparation method therefor” (HARWAY PHARMA CO., LTD, priority 2022, published 2025)
